How the values were obtained:
[1] = target: T1, CYP17 (human testicular microsome) (Homo sapiens, UniProt P05093); experiment: CYP17 enzymatic assay (% inhibition at 1 nM) (Biological Example 12); type: biochemical; conditions: compound at 1 nM, read-out: Biological Example No. 12: CYP17 enzymatic assay % inhibition at 1 nM
T1 construct: using microsomal fraction from human testis (Celsis Cat #S00110) as the enzyme source; tissue Celsis S00110; host or cells: human testis microsomal fraction
T1 sequence (P05093 1-508): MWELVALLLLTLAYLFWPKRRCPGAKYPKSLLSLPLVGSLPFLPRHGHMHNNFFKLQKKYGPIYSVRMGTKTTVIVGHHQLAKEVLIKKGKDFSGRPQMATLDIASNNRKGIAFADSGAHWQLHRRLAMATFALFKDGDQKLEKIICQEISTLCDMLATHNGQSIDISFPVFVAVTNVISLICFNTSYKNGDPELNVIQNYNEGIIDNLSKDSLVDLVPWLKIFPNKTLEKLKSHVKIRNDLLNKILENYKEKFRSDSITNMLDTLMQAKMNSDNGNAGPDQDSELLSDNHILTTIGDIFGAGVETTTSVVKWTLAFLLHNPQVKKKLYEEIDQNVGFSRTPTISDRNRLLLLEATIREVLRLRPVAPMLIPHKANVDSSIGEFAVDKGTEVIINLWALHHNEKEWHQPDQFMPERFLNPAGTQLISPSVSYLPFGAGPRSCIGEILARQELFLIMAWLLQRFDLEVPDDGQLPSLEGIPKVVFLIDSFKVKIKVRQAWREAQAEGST

[2] = target: T2, Cyp21 enzyme (Human HEK 293-Cyp21 stable transfected cells) (Homo sapiens, UniProt P08686); experiment: CYP21-HEK293 enzymatic assay (IC50) (Biological Example 11); type: cell-based; conditions: HEK 293-Cyp21 cells; read-out: Biological Example No. 11: CYP21-HEK293 enzymatic assay IC50
T2 construct: expressed in transfected cells
T2 sequence (P08686 1-495): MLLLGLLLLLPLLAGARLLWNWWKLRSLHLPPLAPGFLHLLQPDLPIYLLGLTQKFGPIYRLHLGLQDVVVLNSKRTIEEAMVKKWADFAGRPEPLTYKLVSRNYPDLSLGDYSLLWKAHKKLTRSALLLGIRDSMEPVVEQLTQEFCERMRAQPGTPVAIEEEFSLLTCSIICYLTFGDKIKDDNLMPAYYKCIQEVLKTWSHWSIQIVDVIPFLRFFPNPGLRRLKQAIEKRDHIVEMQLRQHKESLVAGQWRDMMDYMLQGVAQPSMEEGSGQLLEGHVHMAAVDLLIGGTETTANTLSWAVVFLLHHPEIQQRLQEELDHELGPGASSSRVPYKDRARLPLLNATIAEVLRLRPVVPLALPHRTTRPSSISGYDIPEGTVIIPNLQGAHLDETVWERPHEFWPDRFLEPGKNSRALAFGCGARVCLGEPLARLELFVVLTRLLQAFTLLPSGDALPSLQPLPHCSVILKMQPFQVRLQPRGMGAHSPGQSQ

Structure (SMILES) | inhibition at 0.001 µM [1] | IC50 [2]
C[C@]12CCC(=O)C=C1C(n1ccnn1)CC1C2CC[C@]2(C)C(c3cccnc3)=CCC12 (stereo partly drawn) [Compound 335, (10R,13S)-10,13-dimethyl-17-(pyridin-3-yl)-6-(1H-1,2,3-triazol-1-yl)-6,7,8,9,10,11,12,13,14,15-decahydro-1H-cyclopenta[a]phenanthren-3(2H)-one] | 10 to 50% | > 1000 nM
C[C@]12CCC(=O)C=C1C(n1nccn1)CC1C2CC[C@]2(C)C(c3cccnc3)=CCC12 (stereo partly drawn) [Compound 336, (10R,13S)-10,13-dimethyl-17-(pyridin-3-yl)-6-(2H-1,2,3-triazol-2-yl)-6,7,8,9,10,11,12,13,14,15-decahydro-1H-cyclopenta[a]phenanthren-3(2H)-one] | < 10% | > 1000 nM
C[C@]12CCC(=O)C=C1C(c1ccccc1)CC1C2CC[C@]2(C)C(c3cncc(F)c3)=CCC12 (stereo partly drawn) [Compound 337, (10R,13S)-17-(5-fluoropyridin-3-yl)-10,13-dimethyl-6-phenyl-6,7,8,9,10,11,12,13,14,15-decahydro-1H-cyclopenta[a]phenanthren-3(2H)-one] | < 10% | > 1000 nM
C[C@]12CCC(=O)C=C1C(c1ccccc1)CC1C2CC[C@]2(C)C(c3cccnc3)=CCC12 (stereo partly drawn) [Compound 338, (10R,13S)-10,13-dimethyl-6-phenyl-17-(pyridin-3-yl)-6,7,8,9,10,11,12,13,14,15-decahydro-1H-cyclopenta[a]phenanthren-3(2H)-one] | < 10% | > 1000 nM
C[C@]12CCC(=O)C=C1C(C1CC1)C[C@@H]1[C@@H]2CC[C@]2(C)C(c3cccnc3)=CC[C@@H]12 (stereo partly drawn) [Compound 339, (10R,13S)-6-cyclopropyl-10,13-dimethyl-17-(pyridin-3-yl)-6,7,8,9,10,11,12,13,14,15-decahydro-1H-cyclopenta[a]phenanthren-3(2H)-one] | < 10% | > 1000 nM
CC1CC2C(CC[C@]3(C)C(c4cncc(C(F)F)c4)=CCC23)[C@@]2(C)CCC(=O)C=C12 (stereo partly drawn) [Compound 341, (10R,13S)-17-(5-(difluoromethyl)pyridin-3-yl)-6,10,13-trimethyl-6,7,8,9,10,11,12,13,14,15-decahydro-1H-cyclopenta[a]phenanthren-3(2H)-one] | 10 to 50% | > 1000 nM
C[C@]12CC[C@H]3[C@@H](CC(C4CC4)C4=CC(=O)CC[C@@]43C)C1=CC=C2c1cccnc1 (stereo partly drawn) [Compound 343, (10R,13S)-6-cyclopropyl-10,13-dimethyl-17-(pyridin-3-yl)-6,7,8,9,10,11,12,13-octahydro-1H-cyclopenta[a]phenanthren-3(2H)-one] | 10 to 50% | > 100 nM
C[C@]12CC[C@H]3[C@@H](CC(c4ccccc4)C4=CC(=O)CC[C@@]43C)C1=CC=C2c1cccnc1 (stereo partly drawn) [Compound 344, (10R,13S)-10,13-dimethyl-6-phenyl-17-(pyridin-3-yl)-6,7,8,9,10,11,12,13-octahydro-1H-cyclopenta[a]phenanthren-3(2H)-one] | 10 to 50% | > 1000 nM
CC1C[C@@H]2[C@H](CC[C@]3(C)C(c4cncc(C(F)F)c4)=CC[C@@H]23)[C@@]2(C)C=CC(=O)C=C12 (stereo partly drawn) [Compound 346, (10R,13S)-17-(5-(difluoromethyl)pyridin-3-yl)-6,10,13-trimethyl-6,7,8,9,10,11,12,13,14,15-decahydro-3H-cyclopenta[a]phenanthren-3-one] | 10 to 50% | > 1000 nM
C[C@]12CCC3C(CCC4=CC(=O)CC[C@@]43C)C1=CC=C2c1ccc(F)nc1 (stereo partly drawn) [Compound 355, (10R,13S)-17-(6-fluoropyridin-3-yl)-10,13-dimethyl-6,7,8,9,10,11,12,13-octahydro-1H-cyclopenta[a]phenanthren-3(2H)-one] | 10 to 50% | > 1000 nM
Cc1cnc(F)c(C2=CCC3C4CCC5=CC(=O)CC[C@]5(C)C4CC[C@]23C)c1 (stereo partly drawn) [Compound 356, (10R,13S)-17-(2-fluoro-5-methylpyridin-3-yl)-10,13-dimethyl-6,7,8,9,10,11,12,13,14,15-decahydro-1H-cyclopenta[a]phenanthren-3(2H)-one] | 10 to 50% | > 1000 nM
C[C@]12CCC3C(CCC4=CC(=O)CC[C@@]43C)C1=CC=C2c1cncc(Cl)c1 (stereo partly drawn) [Compound 359, (10R,13S)-17-(5-chloropyridin-3-yl)-10,13-dimethyl-6,7,8,9,10,11,12,13-octahydro-1H-cyclopenta[a]phenanthren-3(2H)-one] | 10 to 50% | > 1000 nM
C[C@]12CCC(=NO)C=C1C1(CC1)C[C@@H]1[C@@H]2CC[C@]2(C)C(c3cccnc3)=CC[C@@H]12 [Compound 362, (6cR,8aS)-10,13-dimethyl-17-(pyridin-3-yl)-1,7,8,9,10,11,12,13,14,15-decahydrospiro[cyclopenta[a]phenanthrene-6,1′-cyclopropan]-3(2H)-one oxime] | 10 to 50% | > 100 nM
CC1(C)C2=CCC3C(CC[C@]4(C)C(c5cccnc5)=CCC34)[C@@]2(C)CC/C1=N\O (stereo partly drawn) [Compound 363, (10R,13S,E)-4,4,10,13-tetramethyl-17-(pyridin-3-yl)-4,7,8,9,10,11,12,13,14,15-decahydro-1H-cyclopenta[a]phenanthren-3(2H)-one oxime] | < 10% | > 1000 nM
C[C@]12C=CC(=NO)C=C1C1(CC1)C[C@@H]1[C@@H]2CC[C@]2(C)C(c3cccnc3)=CC[C@@H]12 [Compound 365, (6cR,8aS)-10,13-dimethyl-17-(pyridin-3-yl)-7,8,9,11,12,13,14,15-octahydrospiro[cyclopenta[a]phenanthrene-6,1′-cyclopropan]-3(10H)-one oxime] | 10 to 50% | > 100 nM
C[C@]12CCC(=NO)C=C1C(F)CC1C2CC[C@]2(C)C(c3cccnc3)=CCC12 (stereo partly drawn) [Compound 366, (10R,13S)-6-fluoro-10,13-dimethyl-17-(pyridin-3-yl)-6,7,8,9,10,11,12,13,14,15-decahydro-1H-cyclopenta[a]phenanthren-3(2H)-one oxime] | 10 to 50% | > 1000 nM
CC1CC2C(CC[C@]3(C)C(c4cccnc4)=CCC23)[C@@]2(C)C=CC(=NO)C=C12 (stereo partly drawn) [Compound 367, (10R,13S)-6,10,13-trimethyl-17-(pyridin-3-yl)-6,7,8,9,10,11,12,13,14,15-decahydro-3H-cyclopenta[a]phenanthren-3-one oxime] | 10 to 50% | > 1000 nM
CC1CC2C3=CC=C(c4ccc(F)nc4)[C@@]3(C)CCC2[C@@]2(C)CCNC(=O)C=C12 (stereo partly drawn) [Compound 385, (5aR,7aS)-8-(6-fluoropyridin-3-yl)-5a,7a,12-trimethyl-3,4,5,5a,5b,6,7,7a,11,12-decahydrocyclopenta[5,6]naphtho[1,2-d]azepin-2(10bH)-one] | 10 to 50% | > 1000 nM
C[C@]12CCC3C(CCC45CC4NC(=O)CC[C@]35C)C1CC=C2c1cccnc1 (stereo partly drawn) [Compound 387, (5aR,7aS)-5a,7a-dimethyl-8-(pyridin-3-yl)-1a,2,4,5,5a,5b,6,7,7a,10,10a,10b,11,12-tetradecahydrocyclopenta[5,6]naphtho[2,1-c]cyclopropa[b]azepin-3(1H)-one] | < 10% | > 1000 nM

From US20130252930A1 (BIOMARIN PHARMACEUTICAL INC., priority 2010, published 2013)
